Results: ChEMBL document CHEMBL4393730, “Thiazolidinedione and thiazole derivatives potentiate norfloxacin activity against NorA efflux pump over expression in Staphylococcus aureus 1199B strains” (Bioorg Med Chem, 2019)

Experiments:
Staphylococcus aureus [1] = assay: Antibacterial activity against wild type Staphylococcus aureus 1199 devoid of norA efflux pump assessed as norfloxacin MIC measured after 24 hrs by broth microdilution method (reference value: 64 +/- 1 microg/ml); assay type: functional; conditions: Staphylococcus aureus, 1199, 24 h
[2] = target: T1, Quinolone resistance protein NorA (Staphylococcus aureus) (UniProt P0A0J7); assay: Inhibition of NorA efflux pump in multidrug resistant Staphylococcus aureus 1199B mutant assessed as reduction in norfloxacin MIC measured after 24 hrs by broth microdilution method relative to norfloxacin
T1 sequence (whole entry): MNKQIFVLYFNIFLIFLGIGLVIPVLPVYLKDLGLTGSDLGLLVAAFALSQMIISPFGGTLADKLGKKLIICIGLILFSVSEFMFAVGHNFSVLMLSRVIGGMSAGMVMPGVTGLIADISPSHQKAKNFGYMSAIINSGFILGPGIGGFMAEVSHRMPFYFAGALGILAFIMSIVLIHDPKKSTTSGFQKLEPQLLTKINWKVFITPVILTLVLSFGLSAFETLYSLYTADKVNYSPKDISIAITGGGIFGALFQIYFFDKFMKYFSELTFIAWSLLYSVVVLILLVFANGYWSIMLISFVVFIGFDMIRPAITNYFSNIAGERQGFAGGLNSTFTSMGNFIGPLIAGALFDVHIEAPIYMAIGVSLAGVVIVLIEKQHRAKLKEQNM

Staphylococcus aureus [3] = assay: Antibacterial activity against wild type Staphylococcus aureus 1199 devoid of norA efflux pump assessed as reduction in norfloxacin MIC measured after 24 hrs by broth microdilution method relative to norfloxacin; assay type: functional
Staphylococcus aureus [4] = assay: Antibacterial activity against wild type Staphylococcus aureus 1199 devoid of NorA efflux pump measured after 24 hrs by broth microdilution method; assay type: functional; conditions: Staphylococcus aureus, 1199, 24 h
Staphylococcus aureus [5] = assay: Antibacterial activity against multidrug resistant Staphylococcus aureus 1199B mutant strain carrying NorA efflux pump assessed as growth inhibition measured after 24 hrs by broth microdilution method; assay type: functional
[6] = target: T1, Quinolone resistance protein NorA (Staphylococcus aureus); assay: Inhibition of NorA efflux pump in multidrug resistant Staphylococcus aureus 1199B mutant assessed as norfloxacin MIC measured after 24 hrs by broth microdilution method (reference value: 256 +/- 1 microg/ml)
[7] = Cytotoxicity against mouse L929 cells assessed as cell growth inhibition at 50 ug/ml measured after 72 hrs by MTT method relative to control; assay type: cell-based; conditions: read-out: GI

Row | SMILES | MIC (Staphylococcus aureus [1]) [µg/mL] | fold change (FC) [2] | fold change (FC) (Staphylococcus aureus [3]) | MIC (Staphylococcus aureus [4]) [µg/mL] | MIC (Staphylococcus aureus [5]) [µg/mL] | MIC [6] [µg/mL] | inhibition at 72 h, 50 ug/ml [7] [%]
1 | COc1ccc(Br)cc1/C=N/Nc1nc(-c2ccc(Br)cc2)cs1 | 16 | 3 | 3 | > 1020 | > 1020 | 64 | 17.3
2 | COc1ccc(Br)cc1/C=N/Nc1nc(-c2ccc([N+](=O)[O-])cc2)cs1 | 5 |  |  | > 1020 | > 1020 | 128 | 39.9
3 | COc1ccc(Br)cc1/C=N/Nc1nc(-c2ccccc2)cs1 | 0.5 | 3 | 3 | > 1020 | > 1020 | 50.8 | 24.4
4 | COc1ccc(Br)cc1/C=N/Nc1nc(-c2ccc(-c3ccccc3)cc2)cs1 | 1020 |  |  | > 1020 | > 1020 | 1020 | 15
5 | COc1ccc(Br)cc1/C=N/Nc1nc(-c2ccc(F)cc2)cs1 | 1020 |  |  | > 1020 | > 1020 | 1020 | 31.2
6 | COc1ccc(Br)cc1/C=N/Nc1nc(-c2ccc(Cl)cc2)cs1 | 0.63 | 3 | 3 | > 1020 | > 1020 | 40.3 | 30.1
